Laboratory results taken from patent publication US9993516B2, “Treatment of left ventricular non-compaction and dilated cardiomyopathy by inhibiting melanocortin receptor four” (THE BRIGHAM AND WOMEN'S HOSPITAL, INC., priority 2013, dated 2018).

What was measured:
[1] = test system: PRDM16 morphant knockdown embryos and truncation mutant (p.K702X) transgenics; test: Cardiac function (cardiac output) by video microscopy in PRDM16 morphant and truncation mutant zebrafish embryos, rescue experiments; format: in vivo; settings: for rescue of reduced cardiac output (contractile impairment): injected into yolk sac at one-cell stage, MCL0020, HS014, SU9119 1 μM, JKC363 2 μM, HS024 200 nM, THIQ 1 μM and 500 μM
Experimental: Morpholinos directed against the translation start codon were 5'-[…] NO: 7) for prdm16 (Gene Tools (Philomath, Oreg.)) and were injected at the one cell stage. Concentrations of 0.2 mM were used. For cardiac-specific overexpression experiments the human PRDM16 truncation mutation ([…]) and the human PRDM16 wildtype were cloned downstream of the cmlc2 promoter into the Tol2kit expression system using Gateway technology (Invitrogen). PRDM16 constructs (15 ng/μl) were co-injected with 10 ng/μl capped Tol2 transposase mRNA into one-cell-stage zebrafish embryos.

[2] = test system: PRDM16 mutant model as well as wildtype fish; test: Tail necrosis on norepinephrine incubation of zebrafish embryos; format: in vivo; settings: high doses of norepinephrine
Experimental: (§1) Working solutions of 10 nM, 100 nM or 1 μM were diluted in 20 ml E3 water and zebrafish embryos were incubated directly after birth. Cardiac function was assessed at 48 hpf as described below.

[3] = test system: healthy wildtype zebrafish embryos
Experimental: MC4 receptor antagonists and agonists were dissolved in 100% DMSO to a stock concentration of 1 mM. Working solutions were diluted in nuclease free water. The concentrations for MCL0020, HS014, SU9119 were 1 μM, for JKC363 2 μM, HS024 200 nM and for the MC4 receptor agonist THIQ 1 μM and 500 μM.
as §1
For analysis of cardiac function embryos were laterally positioned and allowed to acclimate at 24° C. Video microscopy was performed on an Axioplan (Zeiss) upright microscope with a FastCam-PCI high-Speed digital camera (Photron) on top. 1088 frames were digitally captured at identical frame rates (250 frames per second) and magnification (5×). Sequential images were analyzed for heart rate and cardiac output using IMAGEJ and Excel. Experiments were repeated at least 3 times on each occasion using 10 animals.

[4] = test system: PRDM16 morphant and truncation mutant hearts; test: Cardiomyocyte proliferation (PCNA staining) in isolated hearts of PRDM16 morphant/mutant zebrafish; format: in vivo; settings: hearts at 48 hpf
Experimental: For proliferation detection hearts from 48 hpf old zebrafish embryos were isolated and fixed in Prefer fixative (Anatech). The fixed hearts were stained with the primary antibodies rabbit anti-PCNA 1:200 (Abcam) and mouse anti-MF20 1:100 (DSHB), and the secondary antibodies donkey or goat anti-rabbit or mouse Alexa 488 or 546 conjugated (Invitrogen) 1:1,000. Hearts were mounted with ProLong Antifade reagent with DAPI mounting medium on a slide. Confocal images were analyzed using IMAGEJ.

[5] = test system: PRDM16 mutants; test: Apoptosis (TUNEL assay) in isolated hearts of PRDM16 mutant zebrafish; format: in vivo; settings: hearts at 48 hpf
Experimental: For detection of apoptosis hearts from 48 hpf old zebrafish embryos were isolated and fixed in 4% PFA/PBS for 30 min and washed twice in PBS-T for 30 min. TUNEL assay was performed by using the in situ cell detection kit from Roche. Hearts were mounted with ProLong Antifade reagent with DAPI on a slide and confocal images were analyzed using IMAGEJ.

[6] = test system: PRDM16 morphant and mutant hearts; test: Intercellular coupling / conduction velocity by optical mapping of isolated zebrafish embryo hearts; format: in vivo
Experimental: Intercellular coupling parameters in zebrafish embryo hearts were measured using previously reported techniques. Briefly, hearts were isolated from zebrafish embryos, stained with the transmembrane-potential-sensitive dye di-8-ANEPPS (Invitrogen) and placed into a perfusion chamber that was mounted onto the stage of an inverted microscope. Excitation light from a high-intensity Hg arc lamp was transmitted through a 525/50-nm bandpass filter and reflected onto the preparation via a 565-nm dichroic mirror. Fluorescence emission was filtered by a 685/80-nm bandpass filter and recorded at a rate of 2000 s^-1 by a high-speed CCD camera (CardioCCD-[…]). Single-pixel action potentials were extracted from the fluorescence data and conduction velocities were estimated using an established algorithm. Experiments were repeated at least 2 times with 5 animals. Immunofluorescence, Detection of Apotosis and Mitochondrial Assessment

Row | Compound | rescue of contractile dysfunction ([1]; PRDM16 mutant model, norepinephrine doses of 10 nM up to 1 μM, incubation in E3 water, 48 hpf) | necrosis of the tail [2] | rescue of reduced cardiac output (contractile impairment) [1] | cardiac output in wildtype embryos ([3]; THIQ 1 μM and 500 μM) | heart rate ([3]; THIQ, FIGS. 8A and 8B, fish group not given) | decreased cardiomyocyte proliferation (percentage of PCNA positive cells) [4] | increased apoptosis [5] | disrupted coupling of cells (reduction in impulse propagation velocities) [6]
1 | NC[C@H](O)c1ccc(O)c(O)c1 [norepinephrine] | able to rescue | necrosis of the tail |  |  |  |  |  | 
2 | O=C(N[C@H](Cc1ccc(Cl)cc1)C(=O)N1CCC(Cn2cncn2)(C2CCCCC2)CC1)[C@H]1Cc2ccccc2CN1 [THIQ] |  |  | not able to rescue | decreases cardiac output | not altered |  |  | 
3 | HS024 |  |  | efficiently rescued |  |  | prevented or reduced | restored | rescued
